# Measured values reported in patent US6525001B1, “Substituted pyrimidine and pyridine herbicides” (Mid-American Commercialization Corporation, priority 1997, dated 2003).
# Legend:
# Format in all cases: in vivo
# Design in all cases: key: 0 is no effect; 10 is complete control
# [1] = test system: duck salad (Heteranthera limosa); assay: Test B flood test
# Method in brief: (§1)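 Plants were grown to the 2-leaf stage before treatment with test chemical, then held in a greenhouse for twelve to sixteen days. Injury was visually rated against untreated controls on a 0–10 scale, where 0 is no effect and 10 is complete control.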
# [2] = test system: smallflower flatsedge (Cyperus difformis); assay: Test B flood test
# Method in brief: as §1
# [3] = test system: bamyardgrass (Echinochloa crus-galli); assay: Test B flood test
# Method in brief: as §1
# rice (Oryza sativa) = assay: Test B flood test
# Method in brief: as §1
# [4] = test system: crabgrass (Digitaria sanguinalis); assay: Test B pre-/postemergence
# From the text: (§2) Seeds of bedstraw (Galium aparine), blackgrass (Alopecurus myosuroides), broadleaf signalgrass (Brachiaria decumbens), cocklebur (Xanthium strumarium), corn (Zea mays), crabgrass (Digitaria sanguinalis), giant foxtail (Setaria faberii), lambsquarters (Chenopodium album), momingglory (Ipomoea hederacea), pigweed (Amaranthus retroflexus), rape (Brassica napus), soybean (Glycine max), sugar beet (Beta vulgaris), velvetleaf (Abutilon theophrasti), wheat (Triticum aestivum), wild oat (Avena fatua) and purple nutsedge (Cyperus rotundus) tubers were planted and treated preemergence with test chemicals formulated in a non-phytotoxic solvent mixture which included a surfactant.
# (§3) At the same time, these crop and weed species were also treated with postemergence applications of test chemicals formulated in the same manner. Plants ranged in height from 2 to 18 cm (1- to 4-leaf stage) for postemergence treatments. Plant species in the flood test consisted of rice (Oryza sativa), smallflower flatsedge (Cyperus difformis), duck salad (Heteranthera limosa) and bamyardgrass (Echinochloa crus-galli) grown to the 2-leaf stage for testing. Treated plants and controls were maintained in a greenhouse for twelve to sixteen days, after which all species were compared to controls and visually evaluated. Plant response ratings, summarized in Table B, are based on a scale of 0 to 10 where 0 is no effect and 10 is complete control. A dash (−) response means no test result.
# [5] = test system: purple nutsedge (Cyperus rotundus); assay: Test B pre-/postemergence
# From the text: as §2, §3
# [6] = test system: giant foxtail (Setaria faberii); assay: Test B pre-/postemergence
# From the text: as §2, §3
# [7] = test system: cocklebur (Xanthium strumarium); assay: Test B pre-/postemergence
# From the text: as §2, §3
# [8] = test system: bedstraw (Galium aparine); assay: Test B pre-/postemergence
# From the text: as §2, §3
# wild oat (Avena fatua) = assay: Test B pre-/postemergence
# From the text: as §2, §3
# rape (Brassica napus) = assay: Test B pre-/postemergence
# From the text: as §2, §3
# [9] = test system: sugar beet (Beta vulgaris); assay: Test B pre-/postemergence
# From the text: as §2, §3
# [10] = test system: wheat (Triticum aestivum); assay: Test B pre-/postemergence
# From the text: as §2, §3
# [11] = test system: broadleaf signalgrass (Brachiaria decumbens); assay: Test B pre-/postemergence
# From the text: as §2, §3
# corn (Zea mays) = assay: Test B pre-/postemergence
# From the text: as §2, §3
# [12] = test system: pigweed (Amaranthus retroflexus); assay: Test B pre-/postemergence
# From the text: as §2, §3
# soybean (Glycine max) = assay: Test B pre-/postemergence
# From the text: as §2, §3
# [13] = test system: velvetleaf (Abutilon theophrasti); assay: Test B pre-/postemergence
# From the text: as §2, §3
# [14] = test system: blackgrass (Alopecurus myosuroides); assay: Test B pre-/postemergence
# From the text: as §2, §3
# [15] = test system: momingglory (Ipomoea hederacea); assay: Test B pre-/postemergence
# From the text: as §2, §3
# [16] = Rate 62 g/ha, Postemergence (flood test)
# [17] = Rate 125 g/ha, Postemergence, flood test
# [18] = Rate 250 g/ha, Postemergence (flood test species)
smiles,measurement,setting,value
Cc1cnc(-c2cccc(C(F)(F)F)c2)nc1Cc1cccc(C(F)(F)F)c1 [Compound 24],"Plant response rating, Ducksalad",[1]; [16],0
same,"Plant response rating, Ducksalad",[1]; [17],2
same,"Plant response rating, Ducksalad",[1]; [18],3
same,"Plant response rating, S. Flatsedge",[2]; [16],0
same,"Plant response rating, S. Flatsedge",[2]; [17],1
same,"Plant response rating, S. Flatsedge",[2]; [18],3
same,"Plant response rating, Barnyardgrass",[3]; [16],2
same,"Plant response rating, Barnyardgrass",[3]; [17],3
same,"Plant response rating, Barnyardgrass",[3]; [18],4
same,"Plant response rating, Rice",rice (Oryza sativa); [16],1
same,"Plant response rating, Rice",rice (Oryza sativa); [17],1
same,"Plant response rating, Rice",rice (Oryza sativa); [18],2
same,"Plant response rating, Crabgrass","[4]; Rate 62 g/ha, Postemergence",8
same,Crabgrass plant response rating,"[4]; Rate 62 g/ha, Preemergence",1
same,"Plant response rating, Crabgrass","[4]; Rate 125 g/ha, Postemergence",8
same,Crabgrass plant response rating,"[4]; Rate 125 g/ha, Preemergence",3
same,"Plant response rating, Crabgrass","[4]; Rate 250 g/ha, Postemergence",8
same,"Plant response rating, Crabgrass","[4]; Rate 250 g/ha, Preemergence",1
same,"Plant response rating, Nutsedge","[5]; Rate 62 g/ha, Postemergence",0
same,Nutsedge plant response rating,"[5]; Rate 62 g/ha, Preemergence",0
same,"Plant response rating, Nutsedge","[5]; Rate 125 g/ha, Postemergence",1
same,Nutsedge plant response rating,"[5]; Rate 125 g/ha, Preemergence",0
same,"Plant response rating, Nutsedge","[5]; Rate 250 g/ha, Preemergence",0
same,"Plant response rating, Giant foxtail","[6]; Rate 62 g/ha, Postemergence",2
same,Giant foxtail plant response rating,"[6]; Rate 62 g/ha, Preemergence",0
same,"Plant response rating, Giant foxtail","[6]; Rate 125 g/ha, Postemergence",2
same,Giant foxtail plant response rating,"[6]; Rate 125 g/ha, Preemergence",6
same,"Plant response rating, Giant foxtail","[6]; Rate 250 g/ha, Postemergence",3
same,"Plant response rating, Giant foxtail","[6]; Rate 250 g/ha, Preemergence",6
same,"Plant response rating, Cocklebur","[7]; Rate 62 g/ha, Postemergence",9
same,Cocklebur plant response rating,"[7]; Rate 62 g/ha, Preemergence",0
same,"Plant response rating, Cocklebur","[7]; Rate 125 g/ha, Postemergence",9
same,Cocklebur plant response rating,"[7]; Rate 125 g/ha, Preemergence",0
same,"Plant response rating, Cocklebur","[7]; Rate 250 g/ha, Postemergence",10
same,"Plant response rating, Cocklebur","[7]; Rate 250 g/ha, Preemergence",0
same,"Plant response rating, Bedstraw","[8]; Rate 62 g/ha, Postemergence",4
same,Bedstraw plant response rating,"[8]; Rate 62 g/ha, Preemergence",0
same,"Plant response rating, Bedstraw","[8]; Rate 125 g/ha, Postemergence",10
same,Bedstraw plant response rating,"[8]; Rate 125 g/ha, Preemergence",1
same,"Plant response rating, Bedstraw","[8]; Rate 250 g/ha, Postemergence",10
same,"Plant response rating, Bedstraw","[8]; Rate 250 g/ha, Preemergence",1
same,"Plant response rating, Wild oats","wild oat (Avena fatua); Rate 62 g/ha, Postemergence",2
same,Wild oats plant response rating,"wild oat (Avena fatua); Rate 62 g/ha, Preemergence",0
same,"Plant response rating, Wild oats","wild oat (Avena fatua); Rate 125 g/ha, Postemergence",3
same,Wild oats plant response rating,"wild oat (Avena fatua); Rate 125 g/ha, Preemergence",1
same,"Plant response rating, Wild oats","wild oat (Avena fatua); Rate 250 g/ha, Postemergence",4
same,"Plant response rating, Wild oats","wild oat (Avena fatua); Rate 250 g/ha, Preemergence",4
same,"Plant response rating, Rape","rape (Brassica napus); Rate 62 g/ha, Postemergence",8
same,Rape plant response rating,"rape (Brassica napus); Rate 62 g/ha, Preemergence",0
same,"Plant response rating, Rape","rape (Brassica napus); Rate 125 g/ha, Postemergence",10
same,Rape plant response rating,"rape (Brassica napus); Rate 125 g/ha, Preemergence",2
same,"Plant response rating, Rape","rape (Brassica napus); Rate 250 g/ha, Postemergence",10
same,"Plant response rating, Rape","rape (Brassica napus); Rate 250 g/ha, Preemergence",4
same,"Plant response rating, Sugarbeets","[9]; Rate 62 g/ha, Postemergence",10
same,Sugarbeets plant response rating,"[9]; Rate 62 g/ha, Preemergence",2
same,"Plant response rating, Sugarbeets","[9]; Rate 125 g/ha, Postemergence",10
same,Sugarbeets plant response rating,"[9]; Rate 125 g/ha, Preemergence",3
same,"Plant response rating, Sugarbeets","[9]; Rate 250 g/ha, Postemergence",10
same,"Plant response rating, Sugarbeets","[9]; Rate 250 g/ha, Preemergence",9
same,"Plant response rating, Wheat","[10]; Rate 62 g/ha, Postemergence",2
same,Wheat plant response rating,"[10]; Rate 62 g/ha, Preemergence",0
same,"Plant response rating, Wheat","[10]; Rate 125 g/ha, Postemergence",2
same,Wheat plant response rating,"[10]; Rate 125 g/ha, Preemergence",0
same,"Plant response rating, Wheat","[10]; Rate 250 g/ha, Postemergence",3
same,"Plant response rating, Wheat","[10]; Rate 250 g/ha, Preemergence",0
same,"Plant response rating, B. signalgrass","[11]; Rate 62 g/ha, Postemergence",2
same,B. signalgrass plant response rating,"[11]; Rate 62 g/ha, Preemergence",2
same,"Plant response rating, B. signalgrass","[11]; Rate 125 g/ha, Postemergence",2
same,B. signalgrass plant response rating,"[11]; Rate 125 g/ha, Preemergence",3
same,"Plant response rating, B. signalgrass","[11]; Rate 250 g/ha, Postemergence",3
same,"Plant response rating, B. signalgrass","[11]; Rate 250 g/ha, Preemergence",6
same,"Plant response rating, Corn","corn (Zea mays); Rate 62 g/ha, Postemergence",1
same,Corn plant response rating,"corn (Zea mays); Rate 62 g/ha, Preemergence",0
same,"Plant response rating, Corn","corn (Zea mays); Rate 125 g/ha, Postemergence",1
same,Corn plant response rating,"corn (Zea mays); Rate 125 g/ha, Preemergence",0
same,"Plant response rating, Corn","corn (Zea mays); Rate 250 g/ha, Postemergence",1
same,"Plant response rating, Corn","corn (Zea mays); Rate 250 g/ha, Preemergence",0
same,"Plant response rating, Redroot pigweed","[12]; Rate 62 g/ha, Postemergence",9
same,Redroot pigweed plant response rating,"[12]; Rate 62 g/ha, Preemergence",0
same,"Plant response rating, Redroot pigweed","[12]; Rate 125 g/ha, Postemergence",10
same,Redroot pigweed plant response rating,"[12]; Rate 125 g/ha, Preemergence",8
same,"Plant response rating, Redroot pigweed","[12]; Rate 250 g/ha, Postemergence",10
same,"Plant response rating, Redroot pigweed","[12]; Rate 250 g/ha, Preemergence",10
same,"Plant response rating, Soybean","soybean (Glycine max); Rate 62 g/ha, Postemergence",3
same,Soybean plant response rating,"soybean (Glycine max); Rate 62 g/ha, Preemergence",0
same,"Plant response rating, Soybean","soybean (Glycine max); Rate 125 g/ha, Postemergence",6
same,Soybean plant response rating,"soybean (Glycine max); Rate 125 g/ha, Preemergence",0
same,"Plant response rating, Soybean","soybean (Glycine max); Rate 250 g/ha, Postemergence",6
same,"Plant response rating, Soybean","soybean (Glycine max); Rate 250 g/ha, Preemergence",0
same,"Plant response rating, Velvetleaf","[13]; Rate 62 g/ha, Postemergence",2
same,Velvetleaf plant response rating,"[13]; Rate 62 g/ha, Preemergence",0
same,"Plant response rating, Velvetleaf","[13]; Rate 125 g/ha, Postemergence",6
same,Velvetleaf plant response rating,"[13]; Rate 125 g/ha, Preemergence",1
same,"Plant response rating, Velvetleaf","[13]; Rate 250 g/ha, Postemergence",7
same,"Plant response rating, Velvetleaf","[13]; Rate 250 g/ha, Preemergence",2
same,"Plant response rating, Blackgrass","[14]; Rate 62 g/ha, Postemergence",2
same,Blackgrass plant response rating,"[14]; Rate 62 g/ha, Preemergence",0
same,"Plant response rating, Blackgrass","[14]; Rate 125 g/ha, Postemergence",3
same,Blackgrass plant response rating,"[14]; Rate 125 g/ha, Preemergence",2
same,"Plant response rating, Blackgrass","[14]; Rate 250 g/ha, Postemergence",4
same,"Plant response rating, Blackgrass","[14]; Rate 250 g/ha, Preemergence",3
same,"Plant response rating, Morningglory","[15]; Rate 62 g/ha, Postemergence",8
same,Morningglory plant response rating,"[15]; Rate 62 g/ha, Preemergence",2
same,"Plant response rating, Morningglory","[15]; Rate 125 g/ha, Postemergence",10
same,Morningglory plant response rating,"[15]; Rate 125 g/ha, Preemergence",4
same,"Plant response rating, Morningglory","[15]; Rate 250 g/ha, Postemergence",10
same,"Plant response rating, Morningglory","[15]; Rate 250 g/ha, Preemergence",4
